According to patent US20250230193A1, “CYCLIC COMPOUND HAVING SELECTIVE KRAS INHIBITORY EFFECT ON HRAS AND NRAS” (CHUGAI SEIYAKU KABUSHIKI KAISHA, priority 2022, published 2025):
*1 amine or outer side, *2 acyl side, *3 side chain or, on linkers, in order; H or OH if unused. Where a SMILES comes first, the peptide text is derived from it. Bridges are numbered along the chain shown (N, C = ends). [ ]: non-standard residue; d: D form. The star is where a group is joined. hPhe(3-Cl-4-CF3) = N[C@@H](CCc1ccc(C(F)(F)F)c(Cl)c1)C(=O)O; NPrPhe(4-CF3) = CCCN[C@@H](Cc1ccc(C(F)(F)F)cc1)C(=O)O; X22 = CCCN([C@@H](COC1CCC1)C(=O)[*:2])[*:1]; X4 = CCCN([C@@H](COCCC(C)C)C(=O)[*:2])[*:1]; X33 = CCCN([C@@H](CC(C)C)C(=O)[*:2])[*:1]; NMeGly(cPent) = CN[C@H](C(=O)O)C1CCCC1; NMeD = CN[C@@H](CC(=O)O)C(=O)O; NMeL = CN[C@@H](CC(C)C)C(=O)O; Morpholide = C1CN(*)CCO1; NMeA = CN[C@@H](C)C(=O)O; Aze = O=C(O)[C@@H]1CCN1; Ac4c = NC1(C(=O)O)CCC1; Sar = CNCC(=O)O

How the values were obtained:
[1] = molecular target: GDP-bound NRAS wild-type protein (Homo sapiens, UniProt P01111); assay: Binding to NRAS by surface plasmon resonance (SPR), Single Cycle Kinetics; conditions: KD ratio, GDP-bound NRAS wild-type vs GDP-bound KRAS wild-type, SPR
[2] = molecular target: GDP-bound HRAS wild-type protein (Homo sapiens, UniProt P01112); assay: Binding to HRAS by surface plasmon resonance (SPR), Single Cycle Kinetics; conditions: KD ratio, GDP-bound HRAS wild-type vs GDP-bound KRAS wild-type, SPR
Chain of GDP-bound HRAS wild-type protein (P01112 whole entry): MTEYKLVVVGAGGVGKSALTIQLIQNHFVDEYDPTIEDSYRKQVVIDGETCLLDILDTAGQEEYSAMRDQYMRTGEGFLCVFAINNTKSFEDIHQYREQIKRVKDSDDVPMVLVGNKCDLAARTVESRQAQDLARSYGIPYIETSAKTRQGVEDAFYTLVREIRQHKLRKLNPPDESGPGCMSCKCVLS

Chain of GDP-bound NRAS wild-type protein (P01111 whole entry): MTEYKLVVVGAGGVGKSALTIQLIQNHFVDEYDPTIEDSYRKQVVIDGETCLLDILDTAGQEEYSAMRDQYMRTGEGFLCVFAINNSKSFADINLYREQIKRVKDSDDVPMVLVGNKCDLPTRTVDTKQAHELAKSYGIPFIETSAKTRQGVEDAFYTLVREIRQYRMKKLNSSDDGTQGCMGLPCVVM

SMILES | NRAS/KRAS (ratio of KD value for NRAS to KD value for KRAS) [1] | HRAS/KRAS (ratio of KD value for HRAS to KD value for KRAS) [2]
CC[C@H](C)[C@@H]1NC(=O)[C@H](CC)N(C)C(=O)C[C@@H](C(=O)N(C)C)N(C)C(=O)[C@H](C2CCCC2)N(C)C(=O)C2(CCCC2)N(C)C(=O)[C@@H]2CCCN2C(=O)[C@H](CCc2cc(F)c(C(F)(F)F)c(F)c2)NC(=O)CN(C)C(=O)[C@H](Cc2ccc(C)cc2)N2CC/C=C\C[C@@H](C2=O)N(C)C(=O)[C@@H]2CCCN2C1=O [PP1811] | A (a compound having 10 or more and less than 20 is denoted as A) | B (a compound having 3 or more and less than 10 is denoted as B)
CC[C@H](C)[C@@H]1NC(=O)[C@H](CC)N(C)C(=O)C[C@@H](C(=O)N(C)C)N(C)C(=O)[C@H](C2CCCC2)N(C)C(=O)C2(CCCC2)N(C)C(=O)[C@@H]2C[C@@H](C)CN2C(=O)[C@H](CCc2cc(F)c(C(F)(F)F)c(F)c2)NC(=O)CN(C)C(=O)[C@H](Cc2ccc(C)cc2)N2CC/C=C\C[C@@H](C2=O)N(C)C(=O)CN(C)C1=O [PP1812] | A (a compound having 10 or more and less than 20 is denoted as A) | A (a compound having 10 or more and less than 20 is denoted as A)
CC[C@H](C)[C@@H]1NC(=O)[C@H](C2CC2)N(C)C(=O)C[C@@H](C(=O)N(C)C)N(C)C(=O)[C@H](C2CCCC2)N(C)C(=O)C2(CCCC2)N(C)C(=O)[C@@H]2C[C@@H](C)CN2C(=O)[C@H](CCc2cc(F)c(C(F)(F)F)c(F)c2)NC(=O)CN(C)C(=O)[C@H](Cc2ccc(C)cc2)N2CC/C=C\C[C@@H](C2=O)N(C)C(=O)CN(C)C1=O [PP1813] | A (a compound having 10 or more and less than 20 is denoted as A) | B (a compound having 3 or more and less than 10 is denoted as B)
CC[C@H](C)[C@@H]1NC(=O)[C@H](CC)N(C)C(=O)C[C@@H](C(=O)N(C)C)N(C)C(=O)[C@H](C2CCCC2)N(C)C(=O)C2(CCCC2)N(C)C(=O)[C@@H]2C[C@@H](C)CN2C(=O)[C@H](CCc2cc(F)c(C(F)(F)F)c(F)c2)NC(=O)CN(C)C(=O)[C@H](Cc2ccc(C)cc2)N2CC/C=C\C[C@@H](C2=O)N(C)C(=O)[C@@H]2CCCN2C1=O [PP1814] | A (a compound having 10 or more and less than 20 is denoted as A) | A (a compound having 10 or more and less than 20 is denoted as A)
CCCN1C(=O)C[C@@H](C(=O)N2CCOCC2)N(C)C(=O)[C@H](C2CCCC2)N(C)C(=O)C2(CCC2)NC(=O)[C@@H]2CCCN2C(=O)[C@H](CCc2ccc(C(F)(F)F)c(Cl)c2)NC(=O)CN(C)C(=O)[C@H](Cc2ccc(C(F)(F)F)cc2)N(CCC)C(=O)CN(C)C(=O)CN(C)C(=O)[C@H](C(C)C)NC(=O)[C@@H]1CC(C)C [PP1815] ([X33]V[Sar][Sar][NPrPhe(4-CF3)][Sar][hPhe(3-Cl-4-CF3)]P[Ac4c][NMeGly(cPent)][NMeD]-Morpholide; lactam N-11) | B (a compound having 3 or more and less than 10 is denoted as B) | B (a compound having 3 or more and less than 10 is denoted as B)
CCCN1C(=O)CN(C)C(=O)CN(C)C(=O)[C@H]([C@@H](C)CC)NC(=O)[C@H](CC(C)C)N(C)C(=O)C[C@@H](C(=O)N2CCOCC2)N(C)C(=O)[C@H](C2CCCC2)N(C)C(=O)C2(CCC2)NC(=O)[C@@H]2CCCN2C(=O)[C@H](CCc2ccc(C(F)(F)F)c(Cl)c2)NC(=O)CN(C)C(=O)[C@@H]1COC1CCC1 [PP1816] ([NMeL]I[Sar][Sar][X22][Sar][hPhe(3-Cl-4-CF3)]P[Ac4c][NMeGly(cPent)][NMeD]-Morpholide; lactam N-11) | B (a compound having 3 or more and less than 10 is denoted as B) | C (A compound having a KD ratio of 0.1 or more and less than 3 is denoted as C)
CCCN1C(=O)CN(C)C(=O)CN(C)C(=O)[C@H]([C@@H](C)CC)NC(=O)[C@H](CC(C)C)N(C)C(=O)C[C@@H](C(=O)N2CCOCC2)N(C)C(=O)[C@H](C2CCCC2)N(C)C(=O)C2(CCC2)NC(=O)[C@@H]2CCCN2C(=O)[C@H](CCc2ccc(C(F)(F)F)c(Cl)c2)NC(=O)CN(C)C(=O)[C@@H]1COCCC(C)C [PP1817] ([NMeL]I[Sar][Sar][X4][Sar][hPhe(3-Cl-4-CF3)]P[Ac4c][NMeGly(cPent)][NMeD]-Morpholide; lactam N-11) | C (A compound having a KD ratio of 0.1 or more and less than 3 is denoted as C) | C (A compound having a KD ratio of 0.1 or more and less than 3 is denoted as C)
CCCN1C(=O)[C@@H]2CCN2C(=O)[C@H](C)N(C)C(=O)[C@H]([C@@H](C)CC)NC(=O)[C@H](CC(C)C)N(C)C(=O)C[C@@H](C(=O)N2CCOCC2)N(C)C(=O)[C@H](C2CCCC2)N(C)C(=O)C2(CCC2)NC(=O)[C@@H]2CCCN2C(=O)[C@H](CCc2ccc(C(F)(F)F)c(Cl)c2)NC(=O)CN(C)C(=O)[C@@H]1COC1CCC1 [PP1818] ([NMeL]I[NMeA][Aze][X22][Sar][hPhe(3-Cl-4-CF3)]P[Ac4c][NMeGly(cPent)][NMeD]-Morpholide; lactam N-11) | C (A compound having a KD ratio of 0.1 or more and less than 3 is denoted as C) | B (a compound having 3 or more and less than 10 is denoted as B)
CCCN1C(=O)[C@@H]2CCN2C(=O)[C@H](C)N(C)C(=O)[C@H]([C@@H](C)CC)NC(=O)[C@H](CC(C)C)N(C)C(=O)C[C@@H](C(=O)N2CCOCC2)N(C)C(=O)[C@H](C2CCCC2)N(C)C(=O)C2(CCC2)NC(=O)[C@@H]2CCCN2C(=O)[C@H](CCc2ccc(C(F)(F)F)c(Cl)c2)NC(=O)CN(C)C(=O)[C@@H]1COCCC(C)C [PP1819] ([NMeL]I[NMeA][Aze][X4][Sar][hPhe(3-Cl-4-CF3)]P[Ac4c][NMeGly(cPent)][NMeD]-Morpholide; lactam N-11) | C (A compound having a KD ratio of 0.1 or more and less than 3 is denoted as C) | C (A compound having a KD ratio of 0.1 or more and less than 3 is denoted as C)
CCO[C@@H]1C[C@H]2C(=O)NC3(CCC3)C(=O)N(C)[C@@H](C3CCCC3)C(=O)N(C)[C@H](C(=O)N(C)C)CC(=O)N(C)[C@@H](CC)C(=O)N[C@@H]([C@@H](C)CC)C(=O)N(C)CC(=O)N(C)[C@H]3C/C=C\CCN(C3=O)[C@@H](Cc3ccc(C(F)(F)F)cc3)C(=O)N(C)CC(=O)N[C@@H](CCc3cc(C)c(Cl)c(C)c3)C(=O)N2C1 [PP1821] | A (a compound having 10 or more and less than 20 is denoted as A) | A (a compound having 10 or more and less than 20 is denoted as A)
CC[C@H](C)[C@@H]1NC(=O)[C@H](CC)N(C)C(=O)C[C@@H](C(=O)N(C)C)N(C)C(=O)[C@H](C2CCCC2)N(C)C(=O)C2(CCC2)NC(=O)[C@@H]2CCCN2C(=O)[C@H](CCc2cc(C)c(Cl)c(C)c2)NC(=O)CN(C)C(=O)[C@H](Cc2ccc(C(F)(F)F)cc2)N2CC/C=C\C[C@@H](C2=O)N(C)C(=O)CN(C)C1=O [PP1822] | A (a compound having 10 or more and less than 20 is denoted as A) | B (a compound having 3 or more and less than 10 is denoted as B)
CCO[C@@H]1C[C@H]2C(=O)NC3(CCCC3)C(=O)N(C)[C@@H](C3CCCC3)C(=O)N(C)[C@H](C(=O)N(C)C)CC(=O)N(C)[C@@H](CC)C(=O)N[C@@H]([C@@H](C)CC)C(=O)N(C)CC(=O)N(C)[C@H]3C/C=C\CCN(C3=O)[C@@H](Cc3ccc(C(F)(F)F)cc3)C(=O)N(C)CC(=O)N[C@@H](CCc3cc(C)c(Cl)c(C)c3)C(=O)N2C1 [PP1823] | A (a compound having 10 or more and less than 20 is denoted as A) | A (a compound having 10 or more and less than 20 is denoted as A)
CCCN1C(=O)C[C@@H](C(=O)N(C)C)N(C)C(=O)[C@H](C2CCCC2)N(C)C(=O)C2(CCC2)NC(=O)[C@@H]2C[C@@H](OCC)CN2C(=O)[C@H](CCc2cc(F)c(C(F)(F)F)c(F)c2)NC(=O)CN(C)C(=O)[C@H](Cc2ccc(C(F)(F)F)cc2)N2CC/C=C\C[C@@H](C2=O)N(C)C(=O)CN(C)C(=O)[C@H]([C@@H](C)CC)NC(=O)[C@@H]1CC(C)C [PP1825] | A (a compound having 10 or more and less than 20 is denoted as A) | A (a compound having 10 or more and less than 20 is denoted as A)
CCCN1C(=O)C[C@@H](C(=O)N(C)C)N(C)C(=O)[C@H](C2CCCC2)N(C)C(=O)C2(CCC2)NC(=O)[C@@H]2C[C@@H](OCC)CN2C(=O)[C@H](CCc2cc(F)c(C(F)(F)F)c(F)c2)NC(=O)CN(C)C(=O)[C@H](Cc2ccc(C(F)(F)F)cc2)N2CC/C=C\C[C@@H](C2=O)N(C)C(=O)CNC(=O)[C@H]([C@@H](C)CC)NC(=O)[C@@H]1CC(C)C [PP1826] | A (a compound having 10 or more and less than 20 is denoted as A) | A (a compound having 10 or more and less than 20 is denoted as A)
